For one experiment, the target named is T1, Human M2 (Homo sapiens, UniProt P08172).
T1 construct: expressed in transfected cells; host or cells: CHO-K1
T1 sequence (P08172 1-466): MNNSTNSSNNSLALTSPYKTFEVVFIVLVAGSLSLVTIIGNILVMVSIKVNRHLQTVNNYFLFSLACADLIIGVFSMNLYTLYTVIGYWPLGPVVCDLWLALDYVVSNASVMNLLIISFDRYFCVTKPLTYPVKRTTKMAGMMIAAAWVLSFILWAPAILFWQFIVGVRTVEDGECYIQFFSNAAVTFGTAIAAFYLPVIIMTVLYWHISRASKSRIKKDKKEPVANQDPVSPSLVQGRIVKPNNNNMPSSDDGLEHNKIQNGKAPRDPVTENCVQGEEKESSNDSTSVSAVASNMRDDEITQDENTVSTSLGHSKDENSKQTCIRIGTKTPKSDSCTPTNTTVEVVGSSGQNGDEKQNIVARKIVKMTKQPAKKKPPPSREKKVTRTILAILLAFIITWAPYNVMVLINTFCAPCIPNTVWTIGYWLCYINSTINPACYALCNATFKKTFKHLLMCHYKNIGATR
Put plainly: M2 cell-based functional assay, calcium mobilization (selectivity). The conditions noted are these: for Emax at 30 µM: % ACh maximum at 30 μM; for EC50: M2 cell-based functional assay, calcium flux. In outline: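 CHO-K1 cells stably expressing receptor, Fluo-4-AM loaded (final 1.15 μM), compound added (140 s) then ACh at EC20 and EC80; Ca flux read at 480/530 nm. Normalized to max ACh response; agonist, PAM (EC20 increase) and antagonist (EC80 decrease) activity fitted by four-parameter logistic for EC50 and Emax.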

A further experiment addresses T2, P450 1A2 (Homo sapiens, UniProt P05177).
T2 sequence (P05177 1-516): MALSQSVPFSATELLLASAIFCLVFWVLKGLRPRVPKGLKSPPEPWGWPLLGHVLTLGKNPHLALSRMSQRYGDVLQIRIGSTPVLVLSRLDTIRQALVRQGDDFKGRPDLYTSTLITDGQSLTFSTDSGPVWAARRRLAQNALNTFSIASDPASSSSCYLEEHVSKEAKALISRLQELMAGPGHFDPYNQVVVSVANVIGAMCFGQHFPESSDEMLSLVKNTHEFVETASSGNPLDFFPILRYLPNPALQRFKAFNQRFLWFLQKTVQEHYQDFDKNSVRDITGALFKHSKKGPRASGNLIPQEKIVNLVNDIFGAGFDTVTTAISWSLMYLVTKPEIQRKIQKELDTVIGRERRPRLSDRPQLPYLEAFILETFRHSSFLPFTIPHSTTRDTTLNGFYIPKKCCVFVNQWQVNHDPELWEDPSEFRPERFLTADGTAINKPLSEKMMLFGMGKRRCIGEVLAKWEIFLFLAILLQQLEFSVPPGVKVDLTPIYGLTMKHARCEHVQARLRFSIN
Kind of experiment: P450 1A2 inhibition. Format: in vitro ADME. From the text:
Compounds may be tested in in vitro assays to investigate both metabolism and pharmacokinetics. These assays may be performed according to known methods as generally described in the following references: Conde-Ceide et al. ACS Med. Chem. Lett. 2015, 6, 716-720; Morris et al. J. Med. Chem. 2014, 57, 10192-10197; and Bubser et al. ACS Chem. Neurosci. 2014, 5, 920-942.

Data on 3 molecules can be found in US12552790B2, “Positive modulators of the muscarinic acetylcholine receptor M4” (Vanderbilt University, priority 2023, dated 2026).

SMILES strings stand for the structures. Bounds are passed on as bounds.

Broadly, the Emax is the maximal effect, on the per cent scale that the assay sets. A word on the EC50: it is the concentration giving half of the maximal effect. The IC50 is the point on the concentration scale where inhibition reaches its midpoint. A higher IC50 goes with weaker potency in that assay.

Regarding `[2H]C1([2H])Oc2ccc(OC3CCN(c4nc5nn(C)c(=O)n5cc4C)CC3)cc2OC1([2H])[2H]` [Compound A6, 7-(4-((2,3-dihydrobenzo[b][1,4]dioxin-6-yl-2,2,3,3-d4)oxy)piperidin-1-yl)-2,6-dimethyl-[1,2,4]triazolo[4,3-a]pyrimidin-3(2H)-one], at Human M2, the Emax at 30 µM came out at 68% and the EC50 stood at 499 nM.
`[2H]C1([2H])Oc2ccc(OC3CCN(c4nc5c(cc4C)C(=O)NC5)CC3)cc2OC1([2H])[2H]` [Compound 3, 2-(4-((2,3-dihydrobenzo[b][1,4]dioxin-6-yl-2,2,3,3-d4)oxy)piperidin-1-yl)-3-methyl-6,7-dihydro-5H-pyrrolo[3,4-b]pyridin-5-one] displayed an IC50 at P450 1A2 greater than 100000 nM. Besides, at Human M2, the Emax at 30 µM came out at 61% and the EC50 was determined as 658 nM.
Consider `[2H]C1([2H])Oc2ccc(OC3CCN(c4nc5nn(C)c(=O)n5c(C)c4C)CC3)cc2OC1([2H])[2H]` [Compound A10, 7-(4-((2,3-dihydrobenzo[b][1,4]dioxin-6-yl-2,2,3,3-d4)oxy)piperidin-1-yl)-2,5,6-trimethyl-[1,2,4]triazolo[4,3-a]pyrimidin-3(2H)-one], for which, on Human M2, the Emax at 30 µM is 54% and the EC50 came out at 1520 nM.
